Measured values published in US20230365537A1, “POLO LIKE KINASE 4 INHIBITORS” (ORIC Pharmaceuticals, Inc., priority 2021, published 2023).
pIC50: −log10 of the molar value.

Assays:
human recombinant PLK4 = human recombinant PLK4 (Homo sapiens (Human), UniProt O00444); assay: PLK4 Biochemical Assay (ADP-Glo); settings: 0.5 nM PLK4, 8.0 µM ATP, 4.7 µM MBP, 6 hours at RT
In short: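 Recombinant human PLK4 (added at 1.0 nM) was preincubated 15 min at RT with compound in 50 mM HEPES pH 7.5, 10 mM MgCl2, 1 mM EGTA, 1 mM DTT, 0.01% Brij-35, 0.01% BSA. ADP formed was detected by ADP-Glo luminescence (40 min ATP depletion, 30 min detection). IC50 came from a four-parameter fit.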

[1] = molecular target: human recombinant Aurora A (Homo sapiens (Human), UniProt O14965); assay: Aurora A Kinase Biochemical Assay (ADP-Glo); settings: ratio of Aurora A IC50 to PLK4 IC50 (selectivity)
Sequence of human recombinant Aurora A (O14965 whole entry): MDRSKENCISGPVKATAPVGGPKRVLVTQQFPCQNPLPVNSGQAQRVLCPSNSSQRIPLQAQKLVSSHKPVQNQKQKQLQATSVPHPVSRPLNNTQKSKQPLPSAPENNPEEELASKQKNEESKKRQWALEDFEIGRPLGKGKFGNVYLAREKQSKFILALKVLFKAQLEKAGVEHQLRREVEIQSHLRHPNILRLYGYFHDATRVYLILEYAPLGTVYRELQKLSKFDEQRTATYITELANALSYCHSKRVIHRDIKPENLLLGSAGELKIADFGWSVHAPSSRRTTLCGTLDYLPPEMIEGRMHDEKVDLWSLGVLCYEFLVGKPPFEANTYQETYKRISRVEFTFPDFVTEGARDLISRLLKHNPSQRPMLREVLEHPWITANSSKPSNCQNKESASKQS

[2] = molecular target: human recombinant Aurora B (Homo sapiens (Human), UniProt Q96GD4); assay: Aurora B Kinase Biochemical Assay (ADP-Glo); settings: ratio of Aurora B IC50 to PLK4 IC50 (selectivity)
Sequence of human recombinant Aurora B (Q96GD4 whole entry): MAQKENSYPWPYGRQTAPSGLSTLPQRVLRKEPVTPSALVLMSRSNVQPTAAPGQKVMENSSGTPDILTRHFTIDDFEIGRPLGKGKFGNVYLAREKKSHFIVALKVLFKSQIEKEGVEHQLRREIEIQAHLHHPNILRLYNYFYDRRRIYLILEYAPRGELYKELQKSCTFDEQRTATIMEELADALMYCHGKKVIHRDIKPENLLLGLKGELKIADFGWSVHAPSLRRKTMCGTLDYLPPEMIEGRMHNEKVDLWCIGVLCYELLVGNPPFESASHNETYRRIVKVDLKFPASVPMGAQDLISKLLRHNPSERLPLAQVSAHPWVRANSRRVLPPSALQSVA
In short: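 Recombinant human Aurora B (20 nM in pH 7.5 HEPES buffer with MgCl2, EGTA, DTT, Brij-35, BSA) preincubated with compound 15 min at RT. ADP formed quantified by ADP-Glo luminescence after ATP depletion (40 min) and detection (30 min). IC50 from four-parameter non-linear regression.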

Sequence of human recombinant PLK4 (O00444 whole entry): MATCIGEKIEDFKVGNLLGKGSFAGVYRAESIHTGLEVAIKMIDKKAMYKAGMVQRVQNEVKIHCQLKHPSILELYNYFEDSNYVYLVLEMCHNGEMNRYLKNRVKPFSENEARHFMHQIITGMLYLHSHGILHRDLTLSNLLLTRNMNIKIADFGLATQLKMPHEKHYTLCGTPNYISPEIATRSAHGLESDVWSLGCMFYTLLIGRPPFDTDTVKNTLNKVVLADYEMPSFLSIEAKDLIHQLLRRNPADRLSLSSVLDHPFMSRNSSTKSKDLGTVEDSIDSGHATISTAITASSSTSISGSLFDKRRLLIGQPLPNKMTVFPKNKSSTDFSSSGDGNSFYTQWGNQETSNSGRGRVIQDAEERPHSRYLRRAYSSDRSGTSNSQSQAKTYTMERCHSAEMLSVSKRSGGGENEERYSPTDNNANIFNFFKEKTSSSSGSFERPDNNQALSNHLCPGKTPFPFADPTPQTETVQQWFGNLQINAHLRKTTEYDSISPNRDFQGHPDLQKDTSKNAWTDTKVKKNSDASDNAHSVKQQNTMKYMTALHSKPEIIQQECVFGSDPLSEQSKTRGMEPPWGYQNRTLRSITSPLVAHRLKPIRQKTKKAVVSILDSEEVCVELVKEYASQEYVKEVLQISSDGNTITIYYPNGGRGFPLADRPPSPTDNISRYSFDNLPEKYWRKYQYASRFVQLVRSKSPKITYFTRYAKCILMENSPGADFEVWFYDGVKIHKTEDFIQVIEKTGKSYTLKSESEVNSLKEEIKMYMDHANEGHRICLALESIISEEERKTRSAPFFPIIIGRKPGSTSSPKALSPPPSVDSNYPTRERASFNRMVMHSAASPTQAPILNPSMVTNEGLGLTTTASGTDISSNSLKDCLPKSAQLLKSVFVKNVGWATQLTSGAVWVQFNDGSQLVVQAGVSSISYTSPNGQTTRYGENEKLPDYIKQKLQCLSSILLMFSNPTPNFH

pIC50 (human recombinant PLK4)	[Aurora A IC50 (nM)]/[PLK4 IC50 (nM)] [1]	[Aurora B IC50 (nM)]/[PLK4 IC50 (nM)] [2]	SMILES
8.55	416.6667	977.1102	COc1ccc2c(c1)[C@]1(C[C@H]1c1ccc3c(Nc4nc(N5CCOCC5)ncc4Cl)n[nH]c3c1)C(=O)N2 [Example 103, (1R,2S)-2-(3-{[5-chloro-2-(morpholin-4-yl)pyrimidin-4-yl]amino}-1H-indazol-6-yl)-5′-methozyspiro[cyclopropano-1,3′-indol]-2′(1′H)-one]
8.41	679.6315	232.1904	COc1ccc2c(c1)[C@]1(C[C@H]1c1ccc3c(Nc4nc(C5CNC5)cnc4OC)n[nH]c3c1)C(=O)N2 [Example 110, (1R,2S)-2-(3-{[6-(azetidin-3-yl)-3-methoxypyrazin-2-yl]amino}-1H-indazol-6-yl)-5′-methoxyspiro[cyclopropane-1,3′-indol]-2′(1′H)-one]
8.81	234.7231	144.4951	COc1ccc2c(c1)[C@]1(C[C@H]1c1ccc3c(Nc4cc(N5CC(O)C5)nc(C(C)C)n4)n[nH]c3c1)C(=O)N2 [Example 111, (1R,2S)-2-(3-{[6-(3-hydroxyazetidin-1-yi)-2-(propan-2,yl)pyrimidin-4-yl]amino}-1H-indazol-6-yl)-5′-inethoxyspiro[cyclopropane-1,3′-indol]-2′(1′H)-one]
7.63	197.5105	121.8987	COc1ccc2c(c1)[C@]1(C[C@H]1c1ccc3c(Nc4cc(C)nn4CC(F)F)n[nH]c3c1)C(=O)N2 [Example 112, (1R,2S)-2-(3-{[1-(2,2-difluoroethyl)-3-methyl-1H-pyrazol-5-yl]amino}-1H-indazol-6-yl)-5′-methoxyspiro[cyclopropane-1,3′-indol]-2′(1′H)-one]
7.14	11.1709	11.87	COc1cnc(C)nc1Nc1n[nH]c2cc([C@@H]3C[C@@]34C(=O)N(C)c3ccccc34)ccc12 [Example 122, (1R,2S)-2-{3-[(5-methoxy-2-methylpyrimidin-4-yl)amino]-1H-indezol-6-yl}-1′-methylspiro[cyclopropane-1,3′-indol]-2′(1′H)-one]
7.87	38.03	35.9	COc1cnc(C)nc1Nc1n[nH]c2cc([C@@H]3C[C@@]34C(=O)Nc3ccccc34)ccc12 [Example 124, (1R,2S)-2-{3-[(5-methoxy-2-methylpyrimidin-4-yl)amino]-1H-indazol-6-yl}spiro[cyclopropane-1,3′-indol]-2′(1′H)-one]
5.66	22.77	22.7686	COc1cnc(C)nc1Nc1n[nH]c2cc([C@@H]3C[C@]34C(=O)Nc3ccc(C)cc34)ccc12 [Example 127, (1S,2S)-2-{3-[(5-methoxy-2-methylpyrimidin-4-yl)amino]-1H-indazol-6-yl}-5′-methylspiro[cyclopropane-1,3′-indol]-2′(1′H)-one]
7.46	18.1054	17.1349	COc1cnc(C)nc1Nc1n[nH]c2cc([C@@H]3C[C@@]34C(=O)Nc3cccc(F)c34)ccc12 [Example 129, (1R,2S)-4′-fluoro-2-{3-[(5-methoxy-2-methylpyrimidin-4-yl)amino]-1H-indazol-6-yl}spiro[cyclopropane-1,3′-indol]-2′(1′H)-one]
6.22	58.4811	60.1890	COc1cnc(C)nc1Nc1n[nH]c2cc([C@@H]3C[C@]34C(=O)Nc3cccc(F)c34)ccc12 [Example 130, (1S,2S)-4′-fluoro-2-{3-[(5-methoxy-2-methylpyrimidin-4-yl)amino]-1H-indazol-6-yl}spiro[cyclopropane-1,3′-indol]-2′(1′H)-one]
7.27	105.7084	40.8516	COc1cnc(C)nc1Nc1n[nH]c2cc([C@@H]3C[C@@]34C(=O)Nc3cc(F)ccc34)ccc12 [Example 131, (1R,2S)-6′-fluoro-2-{3-[(5-methoxy-2-methylpyrimidin-4-yl)amino]-1H-indazol-6-yl}spiro[cyclopropane-1,3′-indol]-2′(1′H)-one]
7.15	28.3312	62.6112	Cc1ncc(OC(F)F)c(Nc2n[nH]c3cc([C@@H]4C[C@@]45C(=O)Nc4ccc(F)cc45)ccc23)n1 [Example 135, (1R,2S)-2-(3-{[5-(difluoromethoxy)-2-methylpyrimidin-4-yl]amino}-1H-indazol-6-yl)-5′-fluorospiro[cyclopropane-1,3′-indol]-2′(1′H)-one]
7.71	2573.3401	979.4132	COc1ccc2c(c1)[C@]1(C[C@H]1c1ccc3c(Nc4nc(C)ncc4OC(C)C)n[nH]c3c1)C(=O)N2 [Example 136, (1R,2S)-5′-methoxy-2-[3-({2-methyl-5-[(propan-2-yl)oxy]pyrimidin-4-yl}amino)-1H-indazol-6-yl]spiro[cyclopropane-1,3′-indol]-2′(1′H)-one]
7.01	62	72	COc1cnc(C)nc1Nc1n[nH]c2cc([C@@H]3C[C@@]34C(=O)Nc3ccc(C(F)(F)F)cc34)ccc12 [Example 137, (1R,2S)-2-{3-[(5-methoxy-2-methylpyrimidin-4-yl)amino]-1H-indazol-6-yl}-5′-(trifluoromethyl)spiro[cyclopropane-1,3′-indol]-2′(1′H)-one]
7.56	70	36	COc1cnc(C)nc1Nc1n[nH]c2cc([C@@H]3C[C@@]34C(=O)Nc3ccc(OC(F)(F)F)cc34)ccc12 [Example 138, (1R,2S)-2-{3-[(5-methoxy-2-methylpyrimidin-4yl)amino]-1H-indazol-6-yl}-5′-(trifluoromethoxy)spiro[cyclopropane-1,3′-indol]-2′(1′H)-one]
5.50	7.4	9.6	COc1cnc(C)nc1Nc1n[nH]c2cc([C@@H]3C[C@]34C(=O)Nc3ccc(OC(F)(F)F)cc34)ccc12 [Example 139, (1S,2S)-2-{3-[(5-methoxy-2-methylpyrimidin-4-yl)amino]-1H-indazol-6-yl}-5′-(trifluoromethoxy)spiro[cyclopropane-1,3′-indol]-2′(1′H)-one]
7.88	327.4181	891.0891	COc1ccc2c(c1)[C@]1(C[C@H]1c1ccc3c(Nc4nc(C5COC5)ncc4OC(F)F)n[nH]c3c1)C(=O)N2 [Example 141, (1R,2S)-2-(3-{[5-(difluoromethoxy)-2-(oxetan-3-yl)pyrimidin-4-yl]amino}-1H-indazol-6-yl)-5′-methoxyspiro[cyclopropane-1,3′-indol]-2′(1′H)-one]
7.67	13.818	26.308	COc1cnc(C)nc1Nc1n[nH]c2c(F)c([C@@H]3C[C@@]34C(=O)Nc3ccc(F)cc34)ccc12 [Example 142, (1R,2R)-5′-fluoro-2-{7-fluoro-3-[(5-methoxy-2-methylpyrimidin-4-yl)amino]-1H-indazol-6-yl}spiro[cyclopropane-1,3′-indol]-2′(1′H)-one]
7.07	14.621	40.607	Cc1ncc(OC(F)F)c(Nc2n[nH]c3c(F)c([C@@H]4C[C@@]45C(=O)Nc4ccc(F)cc45)ccc23)n1 [Example 143, (1R,2R)-2-(3-{[5-(difluoromethoxy)-2-methylpyrimidin-4-yl]amino}-7-fluoro-1H-indazol-6-yl)-5′-fluorospiro[cyclopropane-1,3′-indol]-2′(1′H)-one]
8.01	61.2440	96.3153	COc1ccc2c(c1)[C@]1(C[C@H]1c1ccc3c(Nc4cc(C(C)C)nc(C)n4)n[nH]c3c1)C(=O)N2 [Example 151, (1R,2S)-5′-methoxy-2-(3-{[2-methyl-6-(propan-2-yl)pyrimidin-4-yl]amino}-1H-indazol-6-yl)spiro[cyclopropane-1,3′-indol]-2′(1′H)-one]
8.15	502.7949	107.8116	CCc1cnc(C)nc1Nc1n[nH]c2cc([C@@H]3C[C@@]34C(=O)Nc3ccc(OC)cc34)ccc12 [Example 152, (1R,2S)-2-{3-[(5-ethyl-2-methylpyrimidin-4-yl)amino]-1H-indazol-6-yl}-5′-methoxyspiro[cyclopropane-1,3′-indol]-2′(1′H)-one]
8.07	704.9238	51.7286	COc1ccc2c(c1)[C@]1(C[C@H]1c1ccc3c(Nc4ncc(C(F)(F)F)cc4OC)n[nH]c3c1)C(=O)N2 [Example 158, (1R,2S)-5′-methoxy-2-(3-{[3-methoxy-5-(trifluoromethyl)pyridin-2-yl]amino}-1H-indazol-6-yl)spiro[cyclopropane-1,3′-indol]-2′(1′H)-one]
